We go through three compounds from patent publication US20140162958A1, “Copolymer-1 Composition and Methods of Use” (priority 2012, published 2014).

Series [1] is classed as in vivo, patient (the inventor). Here is the method: A series of compositions comprising an amount of copolymer-1 and a local anesthetic were generated in order to provide for a formulation that was substantially free of Site Reactions upon injection. Briefly, the methodology involved titrating amounts of an injectable local anesthetic (bupivacaine, 0.5%) to a solution of copolymer-1 (provided as COPAXONE®, 20 mg injectable syringe). […] This percentage of local anesthetic is well below clinical dosages typically used for skin infiltration for pain control (e.g. 0.25%). The composition was stable for over 30 days both at room temperature and when refrigerated.
The composition described in Example 1 (0.2 mL of bupivacaine (at 0.5%) added to 1.0 mL COPAXONE®, 20 mg injectable syringe) was used in this Example.
The inventor, Dr. Robbins, an anesthesiologist and pain management specialist familiar with the use of local anesthetics in procedures such as spinal epidurals, has been diagnosed with multiple sclerosis and has been prescribed COPAXONE® in order to treat the disease. […] Oral pain management (Motrin) and immediate icing of the injection site were ineffective in alleviating the pain associated with the COPAXONE® injection. […]

The subject of series [2] is 5-hydroxytryptamine (5-HT) induced plasma extravasation. Conditions: concentration of about 0.083%; cited from earlier work.
The test system of another series is RRMS patients. The following applies: 40 mg/mL subcutaneous injection three times a week; cited from earlier work.
Series [3] relates to experimental autoimmune encephalomyelitis (EAE). The following applies: in vivo; cited from earlier work.
Series [4] has as its system exacerbating-remitting form of multiple sclerosis. The following applies: daily injections; cited from earlier work.

On to `CC(C)Cc1ccc(C(C)C(=O)O)cc1` (stereo not drawn) [Motrin], for which the “alleviation of the pain associated with the COPAXONE injection” value in series [1] (oral pain management) was “ineffective”.
As for `CCCCN1CCCCC1C(=O)Nc1c(C)cccc1C` (stereo not drawn) [bupivacaine], in series [2], the “inhibition of 5-HT induced plasma extravasation” value was “greater than 95%”.
Turning to copolymer-1, the “primary endpoint (reducing the annualized relapse rate relative to placebo)” value with RRMS patients is “met its primary endpoint”. The “pain / Site Reactions associated with the treatment” value in series [1] (human, in vivo) was “skin wheals, immediate pain upon injection and continuing post-injection pain”. The “suppression of EAE” value in series [3] is listed as “suppress EAE”. Also, the “exacerbations and increases in disability status versus control patients” value in series [4] was “fewer exacerbations and smaller increases in their disability status”.
